Experimental data as given in the supplement of paper PMC10331698.
± gives the standard deviation of the averaged measurements.

Tests used:
Assay in all cases: level (log10 ratio to DMSO vehicle control); higher = higher biomarker level / cell amount than vehicle control
[1] = compound: COC(=O)C(F)(F)C(F)(F)OC(F)(C(F)(F)F)C(F)(F)OC(F)=C(F)F [Methyl perfluoro(3-(1-ethenyloxypropan-2-yloxy)propanoate)]; conditions: in DMSO
Description: (§1)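 BioMAP Diversity Plus panel of 12 human primary cell co-culture systems (3C, 4H, LPS, SAg, BT, BF4T, BE3C, CASM3C, HDF3CGF, KF3CT, MyoF, Mphg). Compounds were added 1 h before stimulation and left for 24 h (MyoF 48 h; BT 72 h for soluble read-outs or 6 d for IgG). Biomarkers were read by ELISA, cytotoxicity by SRB, PBMC viability and proliferation by Alamar Blue. Each well value was divided by the mean of 8 DMSO control wells on the same plate and log10 transformed; duplicate blinded samples were tested at 4 concentrations.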

[2] = compound: C=CC(=O)OCC(F)(F)C(F)(F)C(F)(F)COC(=O)C=C [1H,1H,5H,5H-Perfluoro-1,5-pentanediol diacrylate]; conditions: 6700 nM; in DMSO
Description: as §1

Nonafluoropentanamide = compound: NC(=O)C(F)(F)C(F)(F)C(F)(F)C(F)(F)F [Nonafluoropentanamide]; conditions: in DMSO
Description: as §1

Hexafluoroamylene glycol = compound: OCC(F)(F)C(F)(F)C(F)(F)CO [Hexafluoroamylene glycol]; conditions: in DMSO
Description: as §1

[3] = compound: O=C(O)C=CC(F)(C(F)(F)F)C(F)(F)F [3-(Perfluoroisopropyl)-2-propenoic acid]; conditions: in DMSO
Description: as §1

[4] = compound: FC(F)(F)C(F)(F)C(F)(F)C(F)(F)C(F)(F)C(F)(F)C(F)(F)I [1-Iodopentadecafluoroheptane]; conditions: in DMSO
Description: as §1

[5] = compound: O=S(=O)(O)CCC(F)(F)C(F)(F)C(F)(F)C(F)(F)C(F)(F)C(F)(F)F [6:2 Fluorotelomer sulfonic acid]; conditions: in DMSO
Description: as §1

[6] = compound: NC(=O)C(F)(F)C(F)(F)C(F)(F)C(F)F; conditions: in DMSO
Description: as §1

Test System | level (log10) ([1]; 6700 nM) | level (log10) ([1]; 20000 nM) | level (log10) [2] | level (log10) (Nonafluoropentanamide; 6700 nM) | level (log10) (Nonafluoropentanamide; 20000 nM) | level (log10) (Nonafluoropentanamide; 60000 nM) | level (log10) (Hexafluoroamylene glycol; 6700 nM) | level (log10) (Hexafluoroamylene glycol; 20000 nM) | level (log10) (Hexafluoroamylene glycol; 60000 nM) | level (log10) ([3]; 6700 nM) | level (log10) ([3]; 20000 nM) | level (log10) ([3]; 60000 nM) | level (log10) ([4]; 6700 nM) | level (log10) ([4]; 20000 nM) | level (log10) ([5]; 6700 nM) | level (log10) ([5]; 20000 nM) | level (log10) ([5]; 60000 nM) | level (log10) ([6]; 6700 nM) | level (log10) ([6]; 20000 nM) | level (log10) ([6]; 60000 nM)
BE3C:uPA | 0.0005 ± 0.0035 | 0.0305 ± 0.012 | -0.015 ± 0.0028 | 0.0115 ± 0.016 | 0.009 ± 0.0099 | 0.0105 ± 0.0078 | -0.0055 ± 0.0078 | -0.013 ± 0.0014 | -0.004 | -0.0045 ± 0.005 | -0.001 ± 0.0057 | 0.0045 ± 0.0021 | -0.0135 ± 0.0035 | -0.009 ± 0.0099 | -0.008 ± 0.0099 | -0.005 ± 0.0028 | 0.01 ± 0.0057 | -0.01 ± 0.0057 | -0.013 ± 0.0085 | -0.0045 ± 0.013
LPS:CD141/Thrombomodulin | -0.05 ± 0.0099 | -0.071 ± 0.027 | 0.0505 ± 0.054 | 0.005 ± 0.027 | 0.018 ± 0.035 | 0.0435 ± 0.035 | 0.0715 ± 0.097 | 0.035 ± 0.023 | 0.06 ± 0.064 | -0.024 ± 0.037 | -0.022 ± 0.0057 | -0.036 ± 0.02 | 0.0215 ± 0.023 | -0.024 ± 0.075 | 0.061 ± 0.03 | 0.065 ± 0.0057 | 0.0475 ± 0.021 | -0.037 ± 0.023 | -0.0225 ± 0.028 | -0.02 ± 0.021
BE3C:tPA | -0.114 ± 0.033 | -0.142 ± 0.018 | -0.0565 ± 0.033 | 0.003 ± 0.0085 | 0.008 ± 0.017 | 0.0095 ± 0.012 | -0.0205 ± 0.00071 | -0.02 ± 0.0057 | 0.011 ± 0.031 | -0.004 ± 0.045 | -0.0215 ± 0.042 | 0.022 ± 0.0071 | -0.006 ± 0.0042 | 0.0075 ± 0.022 | -0.0025 ± 0.016 | 0.029 ± 0.02 | 0.05 ± 0.025 | -0.008 ± 0.0028 | -0.0275 ± 0.016 | -0.0235 ± 0.0021
4H:CD87/uPAR | 0.0215 ± 0.019 | 0.047 ± 0.044 | -0.0665 ± 0.13 | -0.032 ± 0.0071 | 0.0085 ± 0.005 | 0.009 ± 0.041 | 0.0015 ± 0.0021 | -0.0205 ± 0.037 | -0.027 ± 0.023 | 0.034 ± 0.016 | 0.055 ± 0.054 | 0.105 ± 0.027 | -0.013 ± 0.023 | 0.0035 ± 0.012 | -0.0005 ± 0.029 | 0.001 ± 0.031 | -0.002 ± 0.04 | 0.0335 ± 0.013 | 0.044 ± 0.033 | 0.006 ± 0.038
HDF3CGF:Collagen I | 0.013 ± 0.095 | 0.069 | 0.117 ± 0.0085 | 0.02 ± 0.031 | 0.013 ± 0.057 | 0.067 ± 0.033 | -0.005 ± 0.047 | 0.005 ± 0.09 | 0.0485 ± 0.12 | -0.0205 ± 0.043 | -0.0065 ± 0.023 | 0.0475 ± 0.035 | 0.017 ± 0.033 | -0.005 ± 0.017 | -0.031 ± 0.095 | -0.007 ± 0.086 | 0.056 ± 0.11 | -0.005 ± 0.058 | 0.005 ± 0.021 | 0.027 ± 0.02
4H:CCL2/MCP-1 | -0.0055 ± 0.019 | 0.016 ± 0.064 | -0.058 ± 0.0028 | -0.024 ± 0.017 | -0.017 | -0.004 ± 0.013 | 0.0255 ± 0.022 | -0.02 ± 0.027 | 0.009 ± 0.0099 | 0.008 ± 0.025 | -0.0105 ± 0.022 | 0.0005 ± 0.0064 | -0.015 ± 0.033 | 0.0095 ± 0.037 | -0.0135 ± 0.056 | 0.0065 ± 0.029 | -0.02 ± 0.011 | -0.0155 ± 0.032 | -0.039 ± 0.031 | 0.029 ± 0.04
BE3C:PAI-I | 0.0185 ± 0.019 | 0.037 ± 0.0071 | 0.0535 ± 0.0064 | -0.087 ± 0.033 | -0.137 ± 0.052 | -0.117 ± 0.044 | -0.0205 ± 0.0021 | -0.017 ± 0.0042 | 0.0115 ± 0.0021 | 0.0105 ± 0.00071 | -0.003 ± 0.0042 | 0.0065 ± 0.023 | -0.0185 ± 0.047 | -0.0245 ± 0.037 | -0.005 ± 0.0014 | 0.011 ± 0.0085 | 0.0435 ± 0.016 | 0.0065 ± 0.0064 | -0.0055 ± 0.0035 | 0 ± 0.0028
lMphg:SRB | 0.0025 ± 0.011 | 0.0025 ± 0.011 | 0.001 ± 0.0014 | 0.003 ± 0.014 | 0.003 ± 0.0071 | -0.006 ± 0.0042 | 0.0055 ± 0.015 | 0.007 ± 0.02 | -0.002 | -0.017 ± 0.0085 | -0.012 ± 0.0099 | -0.0085 ± 0.012 | -0.01 ± 0.0014 | -0.0015 ± 0.0021 | -0.001 ± 0.011 | 0.0125 ± 0.019 | -0.002 ± 0.018 | -0.008 ± 0.0057 | -0.007 ± 0.0042 | -0.0005 ± 0.018
3C:CCL2/MCP-1 | 0.0045 ± 0.0064 | 0.0175 ± 0.032 | -0.026 ± 0.0042 | -0.0045 ± 0.016 | -0.0125 ± 0.018 | 0.011 ± 0.058 | -0.024 ± 0.013 | -0.013 ± 0.0042 | -0.003 | 0.0025 ± 0.022 | -0.009 ± 0.0014 | 0.019 ± 0.02 | -0.0175 ± 0.005 | 0.023 ± 0.027 | -0.0095 ± 0.021 | -0.017 ± 0.024 | 0.012 ± 0.0071 | -0.01 ± 0.013 | -0.0135 ± 0.011 | 0.015 ± 0.042
CASM3C:LDLR | -0.0035 ± 0.005 | 0.0085 ± 0.033 | -0.004 ± 0.0014 | 0.0055 ± 0.059 | -0.035 ± 0.0028 | 0.021 ± 0.072 | -0.007 ± 0.013 | -0.0095 ± 0.019 | 0.024 ± 0.037 | -0.006 ± 0.017 | -0.0045 ± 0.00071 | 0.008 ± 0.017 | -0.002 ± 0.013 | -0.014 | 0.009 ± 0.0057 | -0.001 ± 0.018 | 0.011 ± 0.04 | -0.008 | -0.006 ± 0.024 | 0.031 ± 0.042
4H:CD62P/P-selectin | 0.0115 ± 0.079 | 0.0095 ± 0.073 | -0.0825 ± 0.018 | -0.0135 ± 0.043 | -0.0075 ± 0.029 | 0.0075 ± 0.05 | -0.029 ± 0.095 | 0.014 ± 0.058 | -0.0385 ± 0.0021 | -0.001 ± 0.02 | -0.0105 ± 0.012 | 0.023 ± 0.0085 | 0.0125 ± 0.021 | 0.0035 ± 0.022 | -0.004 ± 0.064 | -0.003 ± 0.051 | -0.013 ± 0.054 | -0.017 | -0.017 ± 0.031 | 0.0195 ± 0.029
lMphg:SRB-Mphg | -0.011 ± 0.0057 | 0.006 ± 0.017 | 0.0135 ± 0.00071 | 0.005 ± 0.0085 | -0.005 ± 0.014 | -0.012 ± 0.017 | 0.0005 ± 0.0092 | 0.0035 ± 0.015 | 0.007 ± 0.013 | 0.0005 ± 0.013 | 0.004 ± 0.0085 | 0.0075 ± 0.015 | 0.005 ± 0.018 | 0.0125 ± 0.011 | 0.0065 ± 0.0064 | 0.0135 ± 0.0078 | 0.0025 ± 0.036 | 0.0005 ± 0.013 | -0.0045 ± 0.015 | 0.013 ± 0.027
CASM3C:M-CSF | -0.0075 ± 0.036 | 0.01 ± 0.025 | -0.056 ± 0.021 | -0.0105 ± 0.0021 | -0.0075 ± 0.019 | 0.0195 ± 0.035 | -0.0075 ± 0.013 | -0.0195 ± 0.028 | 0.0135 ± 0.044 | -0.0195 ± 0.0078 | -0.0175 ± 0.011 | 0.009 ± 0.034 | -0.0285 ± 0.019 | 0.0225 ± 0.052 | -0.011 ± 0.044 | -0.002 ± 0.0085 | 0.002 ± 0.037 | -0.0485 ± 0.021 | -0.0535 ± 0.046 | 0.019 ± 0.082
MyoF:alpha-SM Actin | -0.023 ± 0.021 | -0.043 ± 0.047 | -0.208 ± 0.024 | -0.023 ± 0.027 | 0.0035 ± 0.04 | -0.0055 ± 0.063 | 0.024 ± 0.0085 | 0.0155 ± 0.013 | 0.025 ± 0.02 | 0.0065 ± 0.021 | 0 ± 0.054 | 0.0245 ± 0.011 | -0.115 ± 0.016 | -0.291 ± 0.045 | 0.016 ± 0.018 | 0.001 ± 0.021 | -0.02 ± 0.082 | -0.006 ± 0.0057 | 0.0025 ± 0.023 | -0.002 ± 0.033
